From patent US20240041825A1, “SAROGLITAZAR AND MYRISTIC ACID FOR USE IN THE TREATMENT OF FOCAL SEGMENTAL GLOMERULOSCLEROSIS (FSGS)” (Delta 4 GmbH, priority 2020, published 2024)

System: Adriamycin-induced FSGS in BALB/c mice
Test: Adriamycin induced nephropathy mouse model of FSGS (UPCR, UACR, histology)
Assay type: in vivo
Conditions: Experiment 1, FIG. 5; chow with 25 mg/kg saroglitazar and/or 625 mg/kg myristic acid from day 2
Text: For biological testing of the shortlisted compounds, we chose accepted mouse models of FSGS such as the adriamycin induced nephropathy or miR-193a-overexpressing mice which suffer from FSGS due to suppression of Wilms' tumor 1 (WT1) gene (Gebeshuber et al., 2013). All animal experiments and handling were in accordance with the Austrian law for protection of animals and approved by the animal ethics committee of the Austrian ministry for science and research.
Adriamycin-dependent nephropathy (active compound: doxorubicin) was induced by tail vein injection accepted doses of approx. 9 mg/kg mouse in 10 weeks old BALB/c mice. Control mice were injected with 0.9% saline. At least 6 mice were analyzed per group. Mice were monitored daily for signs of pain, altered movement, or reduced food uptake and sacrificed by cervical dislocation. […]
Urinary albumin levels were assessed by ELISA, urinary total protein and urinary creatinine levels were measured on the Roche Cobas system, using routine laboratory kits. Urinary protein/creatinine (UPCR) ratio and urinary albumin/creatinine ratio (UACR) were assessed at different time points. Weight and physical fitness scores were monitored on a daily basis. […]
Spot urine was collected every week and Creatinine and protein levels were measured.
Urinary albumin was measured by ELISA. […]

CCCCCCCCCCCCCC(=O)O [Myristic acid]
effect on proteinuria (UPCR) versus control, in words: did not reduce UPCR

CCO[C@@H](Cc1ccc(OCCn2c(C)ccc2-c2ccc(SC)cc2)cc1)C(=O)O [saroglitazar]
effect on proteinuria (UPCR) versus control, in words: able to ameliorate proteinuria to a certain extent
